The text below walks through data of ChEMBL document CHEMBL3217656, “Identification of a potent salicylic acid-based inhibitor of tyrosine phosphatase PTP1B” (Medchemcomm, 2013).

The target in data set [1] is T1, Tyrosine-protein phosphatase non-receptor type 1 (Homo sapiens, UniProt P18031).
T1 sequence (P18031 whole entry): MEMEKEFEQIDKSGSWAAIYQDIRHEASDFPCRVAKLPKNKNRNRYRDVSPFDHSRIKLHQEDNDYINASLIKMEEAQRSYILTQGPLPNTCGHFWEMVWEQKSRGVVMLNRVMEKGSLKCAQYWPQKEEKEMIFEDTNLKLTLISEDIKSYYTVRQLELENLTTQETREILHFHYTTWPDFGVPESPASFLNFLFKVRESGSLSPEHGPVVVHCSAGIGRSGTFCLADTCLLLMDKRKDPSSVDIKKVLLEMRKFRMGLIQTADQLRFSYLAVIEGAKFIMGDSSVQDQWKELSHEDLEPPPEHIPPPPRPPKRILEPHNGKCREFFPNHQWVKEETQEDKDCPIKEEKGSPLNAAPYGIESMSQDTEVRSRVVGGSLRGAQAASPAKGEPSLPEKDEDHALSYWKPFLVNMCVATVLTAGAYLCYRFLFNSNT
The experiment in a line: Competitive inhibition of human GST-tagged PTP1B catalytic domain assessed as rate of DiFMUP hydrolysis by lineweaver-burk plot analysis.

The subject of data set [2] is CHO. The experiment in a line: Cytotoxicity against Chinese hamster CHO cells overexpressing IR assessed as cell proliferation rate at 50 uM by xCELLigence system. It counts as cell-based, Cricetulus griseus.
Data set [3] deals with CHO. The data set is described as follows: Cytotoxicity against Chinese hamster CHO cells overexpressing IR assessed as cell proliferation rate at 0.4 to 10 uM by xCELLigence system. The class given is cell-based, Cricetulus griseus.
In data set [4] the test system is CHO. The experiment in a line: Inhibition of PTP1B in Chinese hamster CHO cells overexpressing IR assessed as insulin-stimulated IR phosphorylation treated for 3 hrs prior to insulin stimulation for 15 mins by western blot analysis. The conditions noted are these: Cricetulus griseus. It counts as cell-based.
Data set [5] concerns the target Receptor-type tyrosine-protein phosphatase F (Homo sapiens) (UniProt P10586). The data set is described as follows: Inhibition of human GST-tagged PTP-LAR D1D2 domain assessed as DiFMUP hydrolysis by fluorometric kinetic-based assay.
The target of another data set is T2, Papain (Carica papaya, UniProt P00784).
T2 sequence (P00784 whole entry): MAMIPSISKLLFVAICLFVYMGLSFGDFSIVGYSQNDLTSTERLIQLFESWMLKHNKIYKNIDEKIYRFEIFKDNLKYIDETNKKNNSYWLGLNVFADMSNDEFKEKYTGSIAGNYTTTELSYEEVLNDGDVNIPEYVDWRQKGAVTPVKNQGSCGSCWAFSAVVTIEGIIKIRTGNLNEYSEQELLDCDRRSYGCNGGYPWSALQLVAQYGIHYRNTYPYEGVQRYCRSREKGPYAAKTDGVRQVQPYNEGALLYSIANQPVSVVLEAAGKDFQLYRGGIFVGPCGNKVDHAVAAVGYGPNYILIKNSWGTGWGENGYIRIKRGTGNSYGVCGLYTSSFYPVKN
The experiment in a line: Inhibition of papaya papain assessed as Z-Phe-Arg-pNA hydrolysis by fluorometric kinetic-based assay.

Data set [6] has as its target T3, Dual specificity protein phosphatase 22 (Homo sapiens, UniProt Q9NRW4).
T3 sequence (Q9NRW4 whole entry): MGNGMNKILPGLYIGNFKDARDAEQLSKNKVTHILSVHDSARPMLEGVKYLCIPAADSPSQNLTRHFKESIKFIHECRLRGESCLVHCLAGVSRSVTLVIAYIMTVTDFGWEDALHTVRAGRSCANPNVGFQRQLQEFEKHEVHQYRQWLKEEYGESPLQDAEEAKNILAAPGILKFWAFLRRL
The data set is described as follows: Inhibition of human GST-tagged full length MKPX assessed as DiFMUP hydrolysis by fluorometric kinetic-based assay.

Data set [7] can be described thus: Inhibition of human GST-tagged PRL2 A/S active mutant assessed as DiFMUP hydrolysis by fluorometric kinetic-based assay.
In data set [8] the target is T4, Tyrosine-protein phosphatase non-receptor type 2 (Homo sapiens, UniProt P17706).
T4 sequence (P17706 whole entry): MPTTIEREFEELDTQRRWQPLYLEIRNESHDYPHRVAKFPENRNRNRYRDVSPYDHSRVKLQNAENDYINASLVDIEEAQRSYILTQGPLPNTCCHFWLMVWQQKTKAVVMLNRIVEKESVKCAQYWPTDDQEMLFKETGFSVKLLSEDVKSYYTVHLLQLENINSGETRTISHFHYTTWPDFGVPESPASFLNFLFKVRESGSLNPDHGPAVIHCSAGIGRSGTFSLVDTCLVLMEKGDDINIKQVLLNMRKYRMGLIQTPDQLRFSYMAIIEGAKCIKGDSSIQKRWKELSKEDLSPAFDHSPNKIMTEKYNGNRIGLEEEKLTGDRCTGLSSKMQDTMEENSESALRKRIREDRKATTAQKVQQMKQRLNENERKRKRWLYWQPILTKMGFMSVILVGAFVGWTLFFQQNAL
The experiment in a line: Inhibition of human GST-tagged TC-PTP catalytic domain assessed as DiFMUP hydrolysis by fluorometric kinetic-based assay.

In data set [9] the target is T5, Receptor-type tyrosine-protein phosphatase S (Homo sapiens, UniProt Q13332). The data set is described as follows: Inhibition of human GST-tagged PTP-sigma D1D2 domain assessed as DiFMUP hydrolysis by fluorometric kinetic-based assay.
Data set [10] addresses T1, Tyrosine-protein phosphatase non-receptor type 1. The data set is described as follows: Inhibition of human GST-tagged PTP1B catalytic domain assessed as DiFMUP hydrolysis by fluorometric kinetic-based assay.
The target in a further data set is T6, Papain (Carica papaya) (UniProt P00784).
T6 sequence (whole entry): T2 sequence (P00784 whole entry)
The experiment in a line: Inhibition of papaya papain assessed as Z-Phe-Arg-pNA hydrolysis at 10 uM by fluorometric kinetic-based assay.

Data set [11] deals with T7, Dual specificity protein phosphatase 22 (Homo sapiens) (UniProt Q9NRW4).
T7 sequence (whole entry): T3 sequence (Q9NRW4 whole entry)
The experiment in a line: Inhibition of human GST-tagged full length MKPX assessed as DiFMUP hydrolysis at 10 uM by fluorometric kinetic-based assay.

For another data set, the species on record is Homo sapiens. The data set is described as follows: Inhibition of human GST-tagged PRL2 A/S active mutant assessed as DiFMUP hydrolysis at 10 uM by fluorometric kinetic-based assay.
Data set [12] has as its target Receptor-type tyrosine-protein phosphatase F (Homo sapiens) (UniProt P10586). The experiment in a line: Inhibition of human GST-tagged PTP-LAR D1D2 domain assessed as DiFMUP hydrolysis at 10 uM by fluorometric kinetic-based assay.
For data set [13], the target named is T5, Receptor-type tyrosine-protein phosphatase S. The experiment in a line: Inhibition of human GST-tagged PTP-sigma D1D2 domain assessed as DiFMUP hydrolysis at 10 uM by fluorometric kinetic-based assay.
For data set [14], the target named is T8, Tyrosine-protein phosphatase non-receptor type 1 (Homo sapiens) (UniProt P18031).
T8 sequence (whole entry): T1 sequence (P18031 whole entry)
The experiment in a line: Inhibition of human GST-tagged PTP1B catalytic domain assessed as DiFMUP hydrolysis at 10 uM by fluorometric kinetic-based assay.

Data set [15] deals with T9, Tyrosine-protein phosphatase non-receptor type 2 (Homo sapiens) (UniProt P17706).
T9 sequence (whole entry): T4 sequence (P17706 whole entry)
The data set is described as follows: Inhibition of human GST-tagged TC-PTP catalytic domain assessed as DiFMUP hydrolysis at 10 uM by fluorometric kinetic-based assay.

The target in data set [16] is T4, Tyrosine-protein phosphatase non-receptor type 2. The data set is described as follows: Inhibition of TC-PTP (unknown origin) expressed in Escherichia coli cells assessed as p-nitrophenyl phosphate hydrolysis by spectrophotometric analysis.
Data set [17] has as its target T1, Tyrosine-protein phosphatase non-receptor type 1. The data set is described as follows: Inhibition of PTP1B (unknown origin) expressed in Escherichia coli cells assessed as p-nitrophenyl phosphate hydrolysis by spectrophotometric analysis.
The test system of data set [18] is CHO. The data set is described as follows: Cytotoxicity against Chinese hamster CHO cells overexpressing IR assessed as slight reduction in cell viability at >50 uM by xCELLigence system. The class given is cell-based, Cricetulus griseus.
The target of data set [19] is T8, Tyrosine-protein phosphatase non-receptor type 1 (Homo sapiens). The experiment in a line: Mixed inhibition of human GST-tagged PTP1B catalytic domain assessed as rate of DiFMUP hydrolysis by lineweaver-burk plot analysis.

Activity calls are given as the source filed them. The calls are words filed in the database; no cut-off is given here.

Sequence of Receptor-type tyrosine-protein phosphatase F (Homo sapiens) (P10586 whole entry, the tested form may be a part): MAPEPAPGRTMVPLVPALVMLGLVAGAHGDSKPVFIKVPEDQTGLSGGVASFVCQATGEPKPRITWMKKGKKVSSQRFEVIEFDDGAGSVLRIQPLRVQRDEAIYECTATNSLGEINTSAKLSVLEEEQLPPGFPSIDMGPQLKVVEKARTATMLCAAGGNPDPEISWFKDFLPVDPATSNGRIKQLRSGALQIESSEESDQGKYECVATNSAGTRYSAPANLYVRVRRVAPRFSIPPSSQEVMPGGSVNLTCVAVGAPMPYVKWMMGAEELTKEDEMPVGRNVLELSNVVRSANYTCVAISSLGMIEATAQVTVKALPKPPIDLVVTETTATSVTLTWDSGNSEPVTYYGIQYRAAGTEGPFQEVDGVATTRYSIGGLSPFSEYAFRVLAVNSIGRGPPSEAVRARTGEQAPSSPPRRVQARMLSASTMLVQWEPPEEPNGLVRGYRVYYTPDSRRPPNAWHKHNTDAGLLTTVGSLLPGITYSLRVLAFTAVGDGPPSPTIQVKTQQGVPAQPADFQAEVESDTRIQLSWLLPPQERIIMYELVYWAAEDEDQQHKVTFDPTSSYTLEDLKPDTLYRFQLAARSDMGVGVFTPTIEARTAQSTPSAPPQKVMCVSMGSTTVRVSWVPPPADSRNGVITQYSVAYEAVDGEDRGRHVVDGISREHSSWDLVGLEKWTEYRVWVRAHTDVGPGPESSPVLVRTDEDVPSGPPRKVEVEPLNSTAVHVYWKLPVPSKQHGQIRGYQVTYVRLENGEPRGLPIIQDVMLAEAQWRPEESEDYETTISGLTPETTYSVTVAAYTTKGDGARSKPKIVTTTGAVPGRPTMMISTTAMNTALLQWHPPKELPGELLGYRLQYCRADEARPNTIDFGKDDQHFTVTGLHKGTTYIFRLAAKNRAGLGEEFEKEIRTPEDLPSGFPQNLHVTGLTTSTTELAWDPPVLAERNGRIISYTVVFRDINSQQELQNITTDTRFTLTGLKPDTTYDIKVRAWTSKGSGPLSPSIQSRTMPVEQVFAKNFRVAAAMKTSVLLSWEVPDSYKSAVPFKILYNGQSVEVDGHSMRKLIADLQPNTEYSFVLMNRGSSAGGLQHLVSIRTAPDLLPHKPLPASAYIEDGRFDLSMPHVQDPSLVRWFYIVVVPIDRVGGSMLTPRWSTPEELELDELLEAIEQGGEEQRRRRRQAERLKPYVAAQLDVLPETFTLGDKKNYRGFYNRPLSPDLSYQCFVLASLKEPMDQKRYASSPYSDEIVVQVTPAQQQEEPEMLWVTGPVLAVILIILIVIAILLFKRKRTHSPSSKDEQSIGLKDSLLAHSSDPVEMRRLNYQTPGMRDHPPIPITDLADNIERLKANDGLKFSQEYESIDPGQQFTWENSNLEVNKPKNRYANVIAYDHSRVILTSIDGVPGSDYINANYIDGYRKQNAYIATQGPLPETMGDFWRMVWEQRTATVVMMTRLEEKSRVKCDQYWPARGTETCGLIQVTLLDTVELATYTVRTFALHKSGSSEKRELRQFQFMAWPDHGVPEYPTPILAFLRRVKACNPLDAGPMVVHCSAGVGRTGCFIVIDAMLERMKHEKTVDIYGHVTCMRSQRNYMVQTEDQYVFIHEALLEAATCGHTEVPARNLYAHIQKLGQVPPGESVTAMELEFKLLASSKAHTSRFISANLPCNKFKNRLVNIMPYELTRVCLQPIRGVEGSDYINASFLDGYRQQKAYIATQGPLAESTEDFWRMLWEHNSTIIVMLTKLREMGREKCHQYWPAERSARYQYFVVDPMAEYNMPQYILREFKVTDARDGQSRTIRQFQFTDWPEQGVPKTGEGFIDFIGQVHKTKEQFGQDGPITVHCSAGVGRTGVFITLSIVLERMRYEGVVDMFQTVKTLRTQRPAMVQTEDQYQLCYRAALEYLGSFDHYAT
T5 sequence (Q13332 whole entry, the tested form may be a part): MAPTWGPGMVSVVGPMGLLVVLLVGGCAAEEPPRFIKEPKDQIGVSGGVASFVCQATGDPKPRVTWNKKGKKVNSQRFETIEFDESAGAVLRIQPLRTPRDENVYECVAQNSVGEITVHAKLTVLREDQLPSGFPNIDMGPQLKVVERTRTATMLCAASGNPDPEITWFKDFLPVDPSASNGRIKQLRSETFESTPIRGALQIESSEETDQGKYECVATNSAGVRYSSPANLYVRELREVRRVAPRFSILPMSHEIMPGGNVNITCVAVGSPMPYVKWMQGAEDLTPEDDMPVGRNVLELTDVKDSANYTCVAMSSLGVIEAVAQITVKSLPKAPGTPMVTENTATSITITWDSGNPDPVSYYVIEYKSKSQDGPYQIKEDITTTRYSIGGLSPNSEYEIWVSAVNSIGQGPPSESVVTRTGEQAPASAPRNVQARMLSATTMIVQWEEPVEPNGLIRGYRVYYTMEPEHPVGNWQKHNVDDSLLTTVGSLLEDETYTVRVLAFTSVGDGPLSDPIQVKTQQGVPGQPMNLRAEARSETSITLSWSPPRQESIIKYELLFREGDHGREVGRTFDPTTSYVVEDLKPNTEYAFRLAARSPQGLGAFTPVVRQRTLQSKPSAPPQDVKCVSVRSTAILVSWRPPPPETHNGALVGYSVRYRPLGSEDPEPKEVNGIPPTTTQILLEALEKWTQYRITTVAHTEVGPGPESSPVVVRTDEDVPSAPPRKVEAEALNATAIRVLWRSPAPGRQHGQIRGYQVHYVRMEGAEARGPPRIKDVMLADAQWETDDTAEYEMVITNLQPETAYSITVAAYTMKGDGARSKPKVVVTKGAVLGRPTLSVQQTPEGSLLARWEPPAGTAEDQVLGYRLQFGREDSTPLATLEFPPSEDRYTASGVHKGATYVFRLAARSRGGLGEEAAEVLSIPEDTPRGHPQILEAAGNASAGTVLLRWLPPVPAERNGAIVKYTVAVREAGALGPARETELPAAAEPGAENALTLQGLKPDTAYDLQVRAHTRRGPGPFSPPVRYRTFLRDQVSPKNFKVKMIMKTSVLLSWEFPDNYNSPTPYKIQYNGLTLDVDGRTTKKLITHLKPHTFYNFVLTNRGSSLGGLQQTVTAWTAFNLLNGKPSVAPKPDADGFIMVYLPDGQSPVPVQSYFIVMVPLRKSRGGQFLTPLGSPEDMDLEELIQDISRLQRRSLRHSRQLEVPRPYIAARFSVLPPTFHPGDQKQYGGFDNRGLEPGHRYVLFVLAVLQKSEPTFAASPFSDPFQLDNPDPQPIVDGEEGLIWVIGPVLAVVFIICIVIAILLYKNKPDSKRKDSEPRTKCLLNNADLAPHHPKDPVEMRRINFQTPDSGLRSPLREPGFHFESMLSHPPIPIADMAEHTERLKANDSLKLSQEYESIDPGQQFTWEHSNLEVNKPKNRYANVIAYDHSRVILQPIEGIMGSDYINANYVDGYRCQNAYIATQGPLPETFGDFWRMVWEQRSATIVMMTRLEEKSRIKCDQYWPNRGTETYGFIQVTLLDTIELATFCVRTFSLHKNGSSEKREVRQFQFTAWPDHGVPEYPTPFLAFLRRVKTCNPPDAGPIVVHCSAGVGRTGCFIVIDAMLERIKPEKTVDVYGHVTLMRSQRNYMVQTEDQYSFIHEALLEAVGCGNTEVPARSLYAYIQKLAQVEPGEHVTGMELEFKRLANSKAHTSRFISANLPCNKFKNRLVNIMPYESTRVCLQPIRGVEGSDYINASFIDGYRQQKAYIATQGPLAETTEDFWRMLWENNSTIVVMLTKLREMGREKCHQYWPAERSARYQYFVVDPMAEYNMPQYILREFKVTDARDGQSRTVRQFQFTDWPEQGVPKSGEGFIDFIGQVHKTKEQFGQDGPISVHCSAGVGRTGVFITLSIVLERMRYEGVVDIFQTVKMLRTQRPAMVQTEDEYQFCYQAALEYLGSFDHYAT

Consider `CN(CC(=O)N(Cc1ccc(C2CCCCC2)cc1)c1ccc(C(=O)O)c(O)c1)S(=O)(=O)c1cccc2ccccc12`, for which the Ki (commonly the equilibrium dissociation constant of an inhibitor or competing ligand from its target) in data set [1] was 2.1 µM. Further, the Activity result in the data set with CHO [2] is “Toxic”; in the data set on CHO [3] it was “Non-toxic”. Also, the inhibition (as a rule, the relative decrease from the control value, in per cent) in the data set on CHO [4] is “Dose-dependent effect”; in data set [13] it was more than 80%; in [14], more than 80%; in data set [15], more than 80%. The inhibition entry (in data set [5]; on Papain (Carica papaya); in [11]; in the data set listed under Homo sapiens; in data set [12]) was “inactive” in each case. Further, the IC50 (in general, the concentration at which inhibition is half-maximal) at Papain was more than 10 µM; in data set [6] it was more than 10 µM; in data set [7], more than 50 µM; in data set [8] it was 3.9 µM; in data set [9], 5.2 µM; in [10] it was 5.2 µM.

Turning to `COC(=O)c1cccc(-c2ccc(-c3ccc(CN(C(=O)CN(C)S(=O)(=O)c4ccc(C)cc4)c4ccc(C(=O)O)c(O)c4)cc3)cc2)c1`, the IC50 is more than 10 µM on Papain; more than 10 µM in [6]; more than 50 µM in data set [7]; 5.6 µM in [8]; 6.3 µM in [9]; 4.8 µM in [10]. In addition, the inhibition result (on Papain (Carica papaya); in data set [11]; in the data set filed under Homo sapiens; in data set [12]) was “inactive” each time. Besides, the inhibition in data set [13], in data set [14] and in data set [15] was more than 80% throughout.

In the case of `O=C(Cn1cc(-c2c(-c3ccccc3)oc3cc(O)c(C(=O)O)cc23)nn1)Nc1ccc(N2CCOCC2)cc1`, the results for the IC50 in data set [16] and in [17] were 22 µM and 19 µM, respectively.

As to `Cc1ccc(S(=O)(=O)N(C)CC(=O)N(Cc2ccc(-c3ccc(-c4cccc(C(N)=O)c4)cc3)cc2)c2ccc(C(=O)O)c(O)c2)cc1`, the IC50 at Papain is more than 10 µM; in [6] it was more than 10 µM; in data set [7], more than 50 µM; in data set [8], 4.4 µM; in [9], 4.6 µM; in [10], 4.6 µM. Moreover, the inhibition result (at Papain (Carica papaya); in data set [11]; in the data set listed under Homo sapiens; in [12]) was “inactive” in each case. In addition, the inhibition in data set [13], in data set [14] and in data set [15] was more than 80% each time.

Turning to `Cc1ccc(S(=O)(=O)N(C)CC(=O)N(Cc2ccc(-c3ccc(-c4cccc(C#N)c4)cc3)cc2)c2ccc(C(=O)O)c(O)c2)cc1`, the IC50 is more than 10 µM on Papain; more than 10 µM in data set [6]; more than 50 µM in [7]; 5.1 µM in [8]; 6.1 µM in data set [9]; 5 µM in data set [10]. Moreover, the inhibition result (on Papain (Carica papaya); in data set [11]; in the data set listed under Homo sapiens; in data set [12]) was “inactive” in each case. For the same compound, the inhibition in data set [13], in data set [14] and in data set [15] was more than 80% throughout.

Turning to `CN(C)c1cccc2c(S(=O)(=O)N(C)CC(=O)N(Cc3ccc(C4CCCCC4)cc3)c3ccc(C(=O)O)c(O)c3)cccc12`, the Ki in data set [1] came to 4 µM. Besides, the Activity entry is recorded as “Toxic” with CHO [18] and “Non-toxic” in the data set on CHO [3]. Also, the inhibition result in the data set on CHO [4] is “Dose-dependent effect”; in [13], more than 80%; in data set [14], more than 80%; in data set [15], more than 80%. In addition, the inhibition result (in data set [5]; on Papain (Carica papaya); in [11]; in the data set listed under Homo sapiens; in [12]) was “inactive” throughout. For the same compound, the IC50 on Papain is more than 10 µM; in data set [6] it was more than 10 µM; in data set [7], more than 50 µM; in [8], 5.1 µM; in data set [9], 3.6 µM; in [10], 4.9 µM.

Take `CN(CC(=O)N(Cc1ccc(C2CCCCC2)cc1)c1ccc(C(=O)O)c(O)c1)S(=O)(=O)c1cccc2cccnc12`: the Activity result is listed as “Toxic” in the data set with CHO [18] and “Non-toxic” with CHO [3]. In addition, the inhibition entry with CHO [4] is “Dose-dependent effect”; in [13], more than 80%; in data set [14], more than 80%; in data set [15], more than 80%. Moreover, the inhibition entry (in [5]; at Papain (Carica papaya); in data set [11]; in the data set listed under Homo sapiens; in data set [12]) was “inactive” throughout. The concentration for half-maximal inhibition (IC50) on Papain was more than 10 µM; in [6], more than 10 µM; in data set [7], more than 50 µM; in data set [8] it was 4.8 µM; in data set [9] it was 4.3 µM; in [10] it was 6.2 µM. In addition, the inhibition result in data set [19] was “Active”.
